In PubChem BioAssay (NCI) one finds GI50 and TGI data, which are given here for 13 molecules.

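Values below derive from 48-hour exposures of cells grown in 96-well plates, with endpoints linearly interpolated between the two concentrations bracketing the appropriate inhibition level. GI50 is the concentration that inhibits growth by half. TGI marks complete inhibition of growth.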

Some test systems named below: SF-268 CNS; SNB-19 CNS; OVCAR-8 ovarian; COLO 205 colon; OVCAR-3 ovarian; SF-539 CNS; NCI-H522 lung; SK-MEL-28 melanoma; HOP-62 NSCLC; CCRF-CEM leukemia.
Holding throughout (assay): growth of human tumour cells (NCI), 48 h

Regarding `O=C(CC1(O)C(=O)Nc2ccc(Br)cc21)c1ccc(C(=O)NCC2CCC3(CC2)OOC2(CCCCC2)OO3)cc1` (stereo unspecified), the GI50 was 6.16 µM with SF-268 CNS; 10.5 µM in the assay on SNB-19 CNS; 4.57 µM in the assay with OVCAR-8 ovarian; 3.74 µM in the assay with COLO 205 colon; 2.13 µM in the assay with OVCAR-3 ovarian; 3.9 µM in the assay with SF-539 CNS. The GI50 with NCI-H522 lung was 0.336 µM; in the assay with SK-MEL-28 melanoma it was 11.1 µM; with HOP-62 NSCLC it was 11 µM. For the same molecule, the TGI in the assay on SF-268 CNS was 36.5 µM; in the assay on SNB-19 CNS, 38.7 µM; with OVCAR-8 ovarian, greater than 100 µM; in the assay on COLO 205 colon, 25.5 µM; with OVCAR-3 ovarian, 10.4 µM; in the assay with SF-539 CNS it was 17.6 µM. For the same molecule, the TGI with NCI-H522 lung came to 1.37 µM; in the assay on SK-MEL-28 melanoma, 46 µM; in the assay on HOP-62 NSCLC, 40.7 µM.

In the case of `Cc1ncc(CO)c(CN)c1O`, the TGI in the assay with SF-268 CNS, with SNB-19 CNS, in the assay on OVCAR-8 ovarian, with COLO 205 colon, with OVCAR-3 ovarian and with SF-539 CNS was greater than 100 µM throughout. Moreover, the TGI with NCI-H522 lung, with SK-MEL-28 melanoma, with CCRF-CEM leukemia and with HOP-62 NSCLC was greater than 100 µM each time.

`CC[C@H](Nc1nc(N)nc(N)c1Cl)c1nc2cccc(NCc3ccc(C(=O)NO)cc3)c2c(=O)n1-c1ccccc1`: the GI50 was 1.66 µM in the assay with SF-268 CNS; 1.7 µM in the assay with SNB-19 CNS; 1.69 µM in the assay with OVCAR-8 ovarian; 2.24 µM in the assay with COLO 205 colon; 1.64 µM with SF-539 CNS; 1.29 µM in the assay on NCI-H522 lung. Further, the figures for the GI50 in the assay with SK-MEL-28 melanoma, in the assay with CCRF-CEM leukemia and in the assay on HOP-62 NSCLC were 1.55 µM, 1.35 µM and 1.67 µM, respectively. The TGI with SF-268 CNS was found to be 3.69 µM; with SNB-19 CNS, 4.18 µM; in the assay on OVCAR-8 ovarian, 5.05 µM; in the assay on COLO 205 colon it was 5.73 µM; in the assay with SF-539 CNS, 3.06 µM; in the assay with NCI-H522 lung it was 3.6 µM. In addition, the TGI with SK-MEL-28 melanoma was 3.21 µM; in the assay with CCRF-CEM leukemia, greater than 100 µM; with HOP-62 NSCLC, 4.04 µM.

Take `c1ccc2c[n+](CCCCCCCCCC[n+]3ccc4ccccc4c3)ccc2c1`: the TGI with SF-268 CNS, in the assay with SNB-19 CNS, with OVCAR-8 ovarian, in the assay on COLO 205 colon, in the assay with OVCAR-3 ovarian and with SF-539 CNS was greater than 10 µM in each case. Also, the TGI with NCI-H522 lung, with SK-MEL-28 melanoma, in the assay with CCRF-CEM leukemia and in the assay with HOP-62 NSCLC was greater than 10 µM throughout.

Consider `CN(C)c1ccc2nc3c(C(=O)O)cc(=O)c(O)c-3oc2c1`, for which the TGI in the assay on SF-268 CNS is greater than 100 µM; in the assay on SNB-19 CNS, 89.8 µM; with OVCAR-8 ovarian it was greater than 100 µM; in the assay on COLO 205 colon, 60 µM; in the assay with OVCAR-3 ovarian, 60.8 µM; with SF-539 CNS it was 69.3 µM. For the same molecule, the TGI was 31.9 µM with NCI-H522 lung, greater than 100 µM with SK-MEL-28 melanoma, 57.8 µM in the assay on CCRF-CEM leukemia and greater than 100 µM in the assay with HOP-62 NSCLC.

Take `COc1cc2c(cc1OC)C(Cl)C(c1ccc(Cl)cc1)=C2Cl` (stereo unspecified): the TGI in the assay on SNB-19 CNS was greater than 100 µM; in the assay on OVCAR-8 ovarian it was 60.5 µM; with COLO 205 colon it was 32.2 µM; in the assay on OVCAR-3 ovarian, 30.1 µM; in the assay on SF-539 CNS it was 31.2 µM; with NCI-H522 lung it was 32.5 µM. The TGI in the assay on SK-MEL-28 melanoma was 41.4 µM; with CCRF-CEM leukemia, 30.6 µM.

As to `CC(C)CNc1nc(N)[nH]c(=O)c1NC=O`, the TGI in the assay with SF-268 CNS, with SNB-19 CNS, in the assay with OVCAR-8 ovarian, in the assay on COLO 205 colon, with OVCAR-3 ovarian and with SF-539 CNS was greater than 100 µM throughout. The TGI in the assay with NCI-H522 lung, in the assay on SK-MEL-28 melanoma, in the assay on CCRF-CEM leukemia and in the assay with HOP-62 NSCLC was greater than 100 µM each time.

Consider `O=C(O)c1ccccn1`, for which the TGI with SF-268 CNS, in the assay on SNB-19 CNS, with OVCAR-8 ovarian, with COLO 205 colon, in the assay on OVCAR-3 ovarian and in the assay on SF-539 CNS was greater than 100 µM each time. The TGI in the assay on SK-MEL-28 melanoma, in the assay with CCRF-CEM leukemia and in the assay on HOP-62 NSCLC was greater than 100 µM throughout.

Take `NCS(=O)(=O)O`: the TGI with SF-268 CNS is greater than 100 µM; in the assay on SNB-19 CNS, greater than 100 µM; in the assay on OVCAR-8 ovarian it was greater than 100 µM; with COLO 205 colon, greater than 100 µM; in the assay with OVCAR-3 ovarian, greater than 100 µM; with SF-539 CNS it was 52.6 µM. Also, the TGI with NCI-H522 lung, in the assay on SK-MEL-28 melanoma, in the assay with CCRF-CEM leukemia and in the assay with HOP-62 NSCLC was greater than 100 µM throughout.

Turning to `N=C(N)c1ccc(-c2ccc(-c3ccc(Cl)cn3)s2)cc1`, the GI50 with SF-268 CNS is 9.67 µM; in the assay on SF-539 CNS, 1.63 µM; in the assay on SK-MEL-28 melanoma, 1.67 µM. Also, the figures for the TGI in the assay with SF-268 CNS, in the assay on SF-539 CNS and with SK-MEL-28 melanoma were 39.3 µM, 3.01 µM and 3.07 µM, respectively.

For `COc1cc2ccc1-c1cc(ccc1O)CC1c3cc4c(cc3CCN1C)Oc1c(OC)cc3c(c1O4)C(C2)N(C)CC3` (stereo unspecified), the TGI is 3.52 µM in the assay on SF-268 CNS; 4.28 µM in the assay with SNB-19 CNS; 3.93 µM in the assay on OVCAR-3 ovarian; 3.27 µM with SF-539 CNS; 3.2 µM in the assay with NCI-H522 lung; 2.89 µM with SK-MEL-28 melanoma. Further, the values for the TGI in the assay on CCRF-CEM leukemia and in the assay on HOP-62 NSCLC were 5.18 µM and 3.65 µM, respectively.

Consider `CN(C)CCNC(=O)c1cccc2nc3c4ccccc4c4ccccc4c3nc12`, for which the TGI with SF-268 CNS came to 0.632 µM; in the assay with SNB-19 CNS, 8.6 µM; with OVCAR-8 ovarian, 7.76 µM; in the assay with COLO 205 colon it was 19.3 µM; with OVCAR-3 ovarian, 7 µM; with SF-539 CNS, 3.18 µM. The TGI in the assay on NCI-H522 lung was 23.4 µM; in the assay on SK-MEL-28 melanoma it was 3.27 µM; in the assay on CCRF-CEM leukemia, 3.03 µM; in the assay with HOP-62 NSCLC it was 34.2 µM.

Turning to `CCOC(=O)c1c2c(c(O)c3ccccc3c(O)n(-c3ccc(C)cc3)c1C)C(=O)C=CC2=O`, the TGI was greater than 100 µM in the assay on SF-268 CNS; greater than 100 µM in the assay with SNB-19 CNS; 41.3 µM in the assay on OVCAR-8 ovarian; 48.5 µM in the assay on COLO 205 colon; 35.2 µM in the assay on OVCAR-3 ovarian; 53.9 µM with SF-539 CNS. Also, the TGI with NCI-H522 lung is 41.7 µM; in the assay with CCRF-CEM leukemia, 78.9 µM; with HOP-62 NSCLC it was 61.7 µM.
